Results from patent publication US8828930B2, “Hepatitis C virus NS3 protease inhibitors” (Merck Sharp & Dohme Corp., priority 2009, dated 2014).
Where two headings read alike, the source gives them in different places.

Assays:
NS3/4A protease gt 3a = NS3/4A protease gt 3a (Hepatitis C virus genotype 3a, UniProt Q81258); assay: HCV NS3 protease time-resolved fluorescence (TRF) assay, NS3/4A inhibitory activity (Ki), gt 3a; assay type: biochemical; conditions: NS3/4A enzyme
Procedure: (§1) The HCV NS3 protease inhibitory activity of the present compounds may be tested using assays known in the art. One such assay is HCV NS3 protease time-resolved fluorescence (TRF) assay as described below and in WO 2006/102087. Other examples of such assays are described in, for example, WO 2005/046712. HCV NS3 protease inhibitors, such as those described herein have a Ki less than 50 μM, such as less than 10 μM, and less than 100 nM. Ki is determined by an NS3 protease assay. The assay is performed in a final volume of 100 μl in assay buffer containing 50 mM HEPES, pH 7.5, 150 mM NaCl, 15% glycerol, 0.15% TRITON X-100, 10 mM DTT, and 0.1% PEG 8000. NS3 protease is preincubated with various concentrations of inhibitors in DMSO for 30 minutes. The reaction is initiated by adding the TRF peptide substrate (final concentration 100 nM). NS3 mediated hydrolysis of the substrate is quenched after 1 hour at room temperature with 100 μl of 500 mM MES, pH 5.5. Product fluorescence is detected using either a VICTOR V2 or FUSION fluorophotometer (PERKIN ELMER LIFE AND ANALYTICAL SCIENCES) with excitation at 340 nm and emission at 615 nm with a 400 μs delay. Testing concentrations of different enzyme forms are selected to result in a signal to background ratio (SIB) of 10-30. IC50 values are derived using a standard four-parameter fit to the data. Ki values are derived from IC50 values using the following formula, IC50=Ki(1+[S]/KM), Eqn (1), where [S] is the concentration of substrate peptide in the reaction and KM is the Michaelis constant. See Paola Gallinari et al., Modulation of Hepatitis C Virus NS3 Protease and Helicase Activities through the Interaction with NS4A, 38 BIOCHEM. 5620 (1999); Paola Gallinari et al., Multiple Enzymatic Activities Associated with Recombinant NS3 Protein of Hepatitis C Virus, 72(8) J. VIROLOGY 6758 (1998); Mariana Taliani et al., A Continuous Assay of Hepatitis C Virus Protease Based on Resonance Energy Transfer Depsipeptide Substrates, 240 ANAL. BIOCHEM. 60 (1996).
(§2) This NS3 protease assay was performed in a final volume of 100 μl assay buffer containing 50 mM HEPES, pH 7.5, 150 mM NaCl, 15% glycerol, 0.15% TRITON X-100, 10 mM DTT, and 0.1% PEG 8000. NS3/4A protease was pre-incubated with various concentrations of inhibitors in DMSO for 30 minutes. The reaction was initiated by adding the TRF peptide substrate (final concentration 100 nM). NS3 mediated hydrolysis of the substrate was quenched after 1 hour at RT with 100 μl of 500 mM MES, pH 5.5. Product fluorescence was detected using either a V1CTOR V2 or FUSION fluorophotometer (PERKIN ELMER LIFE AND ANALYTICAL SCIENCES) with excitation at 340 nm and emission at 615 nm with a 400 us delay. Testing concentrations of different enzyme forms were selected to result in a signal to background ratio (SIB) of 10-30. IC50 values were derived using a standard four-parameter fit to the data. K, values are derived from IC50 values using the following formula, IC50=Ki(1+[S]/KM), Eqn (1), where [S] is the concentration of substrate peptide in the reaction and KM is the Michaelis constant. See Paola Gallinari et al., Modulation of Hepatitis C Virus NS3 Protease and Helicase Activities through the Interaction with NS4A, 38 BIOCHEM. 5620 (1999); Paola Gallinari et al., Multiple Enzymatic Activities Associated with Recombinant NS3 Protein of Hepatitis C Virus, 72(8) J. VIROLOGY 6758 (1998); Mariana Milani et al., A Continuous Assay of Hepatitis C Virus Protease Based on Resonance Energy Transfer Depsipeptide Substrates, 240 ANAL. BIOCHEM. 60 (1996); Shi-Shan Mao et al., A time-resolved, internally quenched fluorescence assay to characterize inhibition of hepatitis C virus nonstructural protein 3-4A protease at low enzyme concentrations, 373 ANALYTICAL BIOCHEMISTRY 1 (2008). Measuring Compound Inhibitory Potency (Replicon EC50 (nM))

HCV gt 1b replicon = assay: HCV replicon assay, compound inhibitory potency (Replicon EC50); assay type: cell-based; conditions: Hepatitis C virus, GT1B
Procedure: Measurement of inhibition by compounds was performed using the HCV replicon system. Several different replicons encoding different HCV genotypes or mutations were used. In addition, potency measurements were made using different formats of the replicon assay, including different ways of measurements and different plating formats. See Jan M. Vrolijk et al., A replicon-based bioassay for the measurement of interferons in patients with chronic hepatitis C, 110 J. VIROLOGICAL METHODS 201 (2003); Steven S. Carroll et al., Inhibition of Hepatitis C Virus RNA Replication by 2′-Modified Nucleoside Analogs, 278(14) J. BIOLOGICAL CHEMISTRY 11979 (2003). However, the underlying principles are common to all of these determinations, and are outlined below.
Stable neomycin phosphotransferase encoding replicon-harboring cell lines were used, so all cell lines were maintained under G418 selection prior to the assay. In some cases the cell lines encoded a luciferase:NEO FUSION and could be assayed either directly by determination of RNA copy number, or indirectly through measurement of the luciferase activity.
To initiate an assay, replicon cells were plated in the presence of a dilution series of test compound in the absence of G418. Typically, the assays were performed in a 96-well plate format for manual operation, or a 384-well plate in an automated assay. Replicon cells and compound were incubated for 24 to 48 hours, depending on the assay. At the end of the assay, cells are washed free of media and compound and then lysed. For direct quantitation, RNA levels were measured by 32P-probe hybridization and protection, or in a TAQMAN-based assay and normalized to cellular cyclophilin A RNA levels. In some cases, luciferase activity was measured using a conventional luciferase assay. In all cases, EC50 determinations were calculated as a percent of a DMSO control by fitting the data to a four-parameter fit function.

[1] = target: NS3/4A protease gt 1b A156V (Hepatitis C virus genotype 1b, UniProt P26663, A1182V); assay: HCV NS3 protease time-resolved fluorescence (TRF) assay, NS3/4A inhibitory activity (Ki), gt 1b A156V; assay type: biochemical
Procedure: as §1, §2

NS3/4A protease gt 1b = NS3/4A protease gt 1b (Hepatitis C virus genotype 1b, UniProt P26663); assay: HCV NS3 protease time-resolved fluorescence (TRF) assay, NS3/4A inhibitory activity (Ki), gt 1b; assay type: biochemical; conditions: NS3/4A enzyme
Procedure: as §1, §2

[2] = Plasma and liver concentrations and pharmacokinetics (Rat PK); assay type: in vivo; parameters: Rat PK 5 mpk AUC: unit not given here; conditions: for concentration at 4 h: 5 mg/kg, 5 mpk, liver concentration at 4 h; for Rat PK 5 mpk AUC: area under the plasma concentration/time curve
Procedure: Test compounds were dissolved in a suitable dosing vehicle for i.v. administration (e.g., 20%:60%:20% DMSO:PEG400:H2O) or per oral administration (e.g., 10% POLYSORBATE80:90% H2O or 100% PEG400). Animals were administered (n=2 or 3) using a crossover study design for non-rodents. Plasma samples were collected at time points between 2 minutes and 24 hours, and compound levels were determined by RP-LC/MS/MS. Liver samples were collected post-mortem in rat. Liver samples were weighed, homogenized, and diluted using techniques known to those skilled in the art, and compound levels were determined by RP-LC/MS/MS.
Pharmacokinetic parameters were calculated based on non-compartmental analysis (e.g., using WATSON, WINNOLIN). Predose concentrations that were below the limit of quantitation (BLQ) were assigned a value of 0, Standard pharmacokinetic parameters CLp, Vdss, half-life (only for IV), % F, Cmax, Tmax, AUC0-last, AUC0-infinity were calculated. AUC values were calculated using linear trapezoidal method for ascending concentrations and the log trapezoidal method for descending concentrations.

[3] = 10% fetal bovine serum, read-out: gt 1b Replicon EC50 10% FBS
[4] = 50% normal human serum, read-out: gt 1b Replicon EC50 50% NHS

Work on `COc1ccc2nc3c(nc2c1)O[C@@H]1C[C@H]2C(=O)N[C@]4(C(=O)NS(=O)(=O)C5CC5)C[C@H]4/C=C\CCCCC[C@H](NC(=O)O[C@@H]4CCC[C@H]4CCCCC3)C(=O)N2C1` [Example 1, (3R,20R,24R,28S,34Z,36S,38R,41S)—N-(Cyclopropylsulfonyl)-9-methoxy-26,40,42-trioxo-4,25-dioxa-1,6,13,27,39-pentaazaheptacyclo[26.13.1.1^3,41.0^5,14.0^7,12.0^20,24,0^36,38]tritetraconta-5,7,9,11,13,34-hexaene-38-carboxamide] yielded a Ki (NS3/4A protease gt 3a) of 0.45 nM, an EC50 (HCV gt 1b replicon; [3]) of 2 nM and an EC50 (HCV gt 1b replicon; [4]) of 9 nM. It also gave a Ki [1] of 1.6 nM, a Ki (NS3/4A protease gt 1b) of 0.16 nM and a concentration at 4 h [2] of 3.6 µM. For the same molecule, the “Rat PK 5 mpk AUC” value [2] was 0.
For `COc1ccc2nc3c(nc2c1)O[C@@H]1C[C@H]2C(=O)N[C@]4(C(=O)NS(=O)(=O)C5(C)CC5)C[C@H]4/C=C\CCCCC[C@H](NC(=O)O[C@@H]4CCC[C@H]4CCCCC3)C(=O)N2C1` [Example 2, (3R,20R,24R,28S,34Z,36S,38R,41S)-9-Methoxy-N-[(1-methylcyclopropyl)sulfonyl]-26,40,42-trioxo-4,25-dioxa-1,6,13,27,39-pentaazaheptacyclo[26.13.1.1^3,41.0^5,14.0^7,12.0^20,24.0^36,38]tritetraconta-5,7,9,11,13,34-hexaene-38-carboxamide], the Ki (NS3/4A protease gt 3a) was 0.48 nM, the EC50 (HCV gt 1b replicon; [3]) was 2 nM and the EC50 (HCV gt 1b replicon; [4]) was 10 nM. It also gave a Ki [1] of 1.1 nM, a Ki (NS3/4A protease gt 1b) of 0.05 nM and a concentration at 4 h [2] of 43 µM. The “Rat PK 5 mpk AUC” value [2] was 0.55.
`COc1ccc2nc3c(nc2c1)O[C@@H]1C[C@H]2C(=O)N[C@]4(C(=O)NS(=O)(=O)C5CC5)C[C@H]4/C=C\CCCCC[C@H](NC(=O)O[C@@H]4C[C@H]4CCCCC3)C(=O)N2C1` [Example 3, (3R,20R,22R,26S,32Z,34S,36R,39S)—N-(Cyclopropylsulfonyl)-9-methoxy-24,38,40-trioxo-4,23-dioxa-1,6,13,25,37-pentaazaheptacyclo[24.13.1.1^3,39.0^5,14.0^7,12.0^20,22.0^34,36]hentetraconta-5,7,9,11,13,32-hexaene-36-carboxamide] gave a Ki (NS3/4A protease gt 3a) of 0.24 nM, an EC50 (HCV gt 1b replicon; [3]) of 2 nM and an EC50 (HCV gt 1b replicon; [4]) of 8 nM. It also gave a Ki [1] of 0.8 nM, a Ki (NS3/4A protease gt 1b) of 0.02 nM and a concentration at 4 h [2] of 13 µM. The “Rat PK 5 mpk AUC” value [2] was 0.19.
`COc1ccc2nc3c(nc2c1)O[C@@H]1C[C@H]2C(=O)N[C@]4(C(=O)NS(=O)(=O)C5(C)CC5)C[C@H]4/C=C\CCCCC[C@H](NC(=O)O[C@@H]4C[C@H]4CCCCC3)C(=O)N2C1` [Example 4, (3R,20R,22R,26S,32Z,34S,36R,39S)-9-Methoxy-N-[(1-methylcyclopropyl)sulfonyl]-24,38,40-trioxo-4,23-dioxa-1,6,13,25,37-pentaazaheptacyclo[24.13.1.1^3,39.0^5,14.0^7,12.0^20,22.0^34,36]hentetraconta-5,7,9,11,13,32-hexaene-36-carboxamide] gave a Ki (NS3/4A protease gt 3a) of 0.27 nM, an EC50 (HCV gt 1b replicon; [3]) of 2 nM and an EC50 (HCV gt 1b replicon; [4]) of 4 nM. It also gave a Ki [1] of 0.6 nM, a Ki (NS3/4A protease gt 1b) of 0.04 nM and a concentration at 4 h [2] of 19 µM. For the same molecule, the “Rat PK 5 mpk AUC” value [2] was 0.1.
Work on `COc1ccc2nc3c(nc2c1)O[C@@H]1C[C@H]2C(=O)N[C@]4(C(=O)NS(=O)(=O)C5CC5)C[C@H]4/C=C\CCCCC[C@H](NC(=O)O[C@]4(C)C[C@H]4CCCCC3)C(=O)N2C1` [Example 5, (3R,20R,22R,26S,32Z,34S,36R,39S)—N-(Cyclopropylsulfonyl)-9-methoxy-22-methyl-24,38,40-trioxo-4,23-dioxa-1,6,13,25,37-pentaazaheptacyclo[24.13.1.1^3,39.0^5,14.0^7,12.0^20,22.0^34,36]hentetraconta-5,7,9,11,13,32-hexaene-36-carboxamide] yielded a Ki (NS3/4A protease gt 3a) of 0.25 nM, an EC50 (HCV gt 1b replicon; [3]) of 1 nM and an EC50 (HCV gt 1b replicon; [4]) of 6 nM. It also gave a Ki [1] of 0.7 nM, a Ki (NS3/4A protease gt 1b) of 0.02 nM and a concentration at 4 h [2] of 20 µM. The “Rat PK 5 mpk AUC” value [2] was 0.18.
`COc1ccc2nc3c(nc2c1)O[C@@H]1C[C@H]2C(=O)N[C@]4(C(=O)NS(=O)(=O)C5(C)CC5)C[C@H]4/C=C\CCCCC[C@H](NC(=O)O[C@]4(C)C[C@H]4CCCCC3)C(=O)N2C1` [Example 6, (3R,20R,22R,26S,32Z,34S,36R,39S)-9-Methoxyl-22-methyl-N-[(1-methylcyclopropyl)sulfonyl]-24,38,40-trioxo-4,23-dioxa-1,6,13,25,37-pentaazaheptacyclo[24.13.1.1^3,39.0^5,14.0^7,12.0^20,22.0^34,36]hentetraconta-5,7,9,11,13,32-hexaene-36-carboxamide] gave a Ki (NS3/4A protease gt 3a) of 0.32 nM, an EC50 (HCV gt 1b replicon; [3]) of 1 nM and an EC50 (HCV gt 1b replicon; [4]) of 4 nM. For the same molecule, the Ki [1] was 0.6 nM, the Ki (NS3/4A protease gt 1b) was 0.03 nM and the concentration at 4 h [2] was 24 µM. For the same molecule, the “Rat PK 5 mpk AUC” value [2] was 0.16.
